Reference: PubChem BioAssay AID1259411 (Chemical Carcinogenesis Research Information System (CCRIS), 2018)
The source made the active and inactive calls. No rule for the calls is given here.

Test system: rodent carcinogenicity bioassays, tumor incidence
Assay: CCRIS carcinogenicity studies
Conditions: Species: RAT; Strain/Sex: SPRAGUE-DAWLEY/FEMALE; Route: GAVAGE; Dose: 0; 12 MG/KG ADMINISTERED 1, 2, 4.5 OR 9 TIMES PER MO FOR 18 MO TO GIVE MEDIAN TOTAL DOSES OF 216; 432; 938; 1872 MG/KG (; Dose: 0; 12 MG/KG ADMINISTERED 1, 2, 4.5 OR 9 TIMES PER MO FOR 18 MO TO GIVE MEDIAN TOTAL DOSES OF 216; 432; 938; 1872 MG/KG (; Tumor Site: Type of Lesion: EAR CANAL: SQUAMOUS-CELL CARCINOMA
How it was run: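 Archive of carcinogenicity, mutagenicity, tumor promotion and tumor inhibition results drawn from journals, NCI reports and other sources, expert-reviewed; covers 1985-2011 and is no longer updated.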

C[C@]12C=CC(=O)C=C1CC[C@@H]1[C@@H]2[C@@H](O)C[C@@]2(C)[C@H]1CC[C@]2(O)C(=O)COC(=O)CCCc1ccc(N(CCCl)CCCl)cc1
carcinogen call: active; positive
